Experimental data: US7427626B2, “2-Anilino-4-(imidazol-5-yl)-pyrimidine derivatives and their use as cdk (cdk2) inhibitors” (AstraZeneca AB, priority 2003, dated 2008)

Molecular target: T1, CDK2/Cyclin E (Homo sapiens, UniProt P24941)
T1 construct: The open reading frames of CDK2 and Cyclin E were isolated; made in house; host or cells: Spodoptera frugiperda SF21 insect cells with baculovirus co-infection (CDK2 and cyclin E); E. coli BL21 (DE3) pLysS (GST-Rb substrate)
Assay: in vitro kinase assay, Scintillation Proximity Assay, incorporation of [γ-33-P]-ATP into GST-Rb
Format: biochemical
Details: CDK2/Cyclin E partially-purified enzyme, GST-Rb substrate, 0.2 μM ATP, 60 minutes at room temperature
Procedure: The compounds were tested in an in vitro kinase assay in 96 well format using Scintillation Proximity Assay (SPA—obtained from Amersham) for measuring incorporation of [γ-33-P]-Adenosine Triphosphate into a test substrate (GST-Retinoblastoma protein; GST-Rb). In each well was placed the compound to be tested (diluted in DMSO and water to correct concentrations) and in control wells either roscovitine as an inhibitor control or DMSO as a […] control.
Approximately 0.2 μl of CDK2/Cyclin E partially-purified enzyme (amount dependent on enzyme activity) diluted in 25 μl incubation buffer was added to each well then 20 μl of GST-Rb/ATP/ATP33 mixture (containing 0.5 μg GST-Rb and 0.2 μM ATP and 0.14 μCi [γ-33-P]-Adenosine Triphosphate in incubation buffer), and the resulting mixture shaken gently, then incubated at room temperature for 60 minutes.
To each well was then added 150 μL stop solution containing (0.8 mg/well of Protein A-PVT SPA bead (Amersham)), 20 pM/well of Anti-Glutathione Transferase, Rabbit IgG (obtained from Molecular Probes), 61 mM EDTA and 50 mM HEPES pH 7.5 containing 0.05% sodium azide.
The plates were sealed with Topseal-S plate sealers, left for two hours then spun at 2500 rpm, 1124 xg., for 5 minutes. The plates were read on a Topcount for 30 seconds per well. […]
E. coli paste was resuspended in 10 ml/g of NETN buffer (50 mM Tris pH 7.5, 120 mM NaCl, 1 mM EDTA, 0.5% v/v NP-40, 1 mM PMSF, 1 ug/ml leupeptin, 1 μg/ml aprotinin and 1 ug/ml pepstatin) and sonicated for 2×45 seconds per 100 ml homogenate. […] The final product was analysed by Sodium Dodeca Sulfate (SDS) PAGE (Polyacrylamide gel) using 8-16% Tris-Glycine gels (Novex, San Diego, USA).
The open reading frames of CDK2 and Cyclin E were isolated by reverse transcriptase-PCR using HeLa cell and activated T cell mRNA as a template and cloned into the insect expression vector pVL1393 (obtained from Invitrogen 1995 catalogue number: V1392-20). […]

Compound	IC50 [nM]
CC(C)n1c(-c2ccnc(Nc3ccccc3)n2)cnc1C(=O)CCc1ccccc1 [Example 9, 2-Anilino-4-[2-(3-phenylpropionyl)-1-isopropylimidazol-5-yl]pyrimidine]	64
CC(C)n1c(-c2ccnc(Nc3ccccc3)n2)cnc1C(=O)c1ccccc1 [Example 6, 2-Anilino4(2-benzoyl-1-isopropylimidazol-5-yl)pyrimidine]	65
CC(C)n1c(-c2ccnc(Nc3ccccc3)n2)cnc1C(=O)c1ccncc1 [Example 8, 2-Anilino-4-[2-(pyridin-4-ylcarbonyl)-1-isopropylimidazol-5-yl]pyrimidine]	4
